Laboratory results published in patent publication US6765010B2, “Compositions and methods for enhancing analgesic potency of tramadol and attenuating its adverse side effects” (Pain Therapeutics, Inc., priority 1999, dated 2004).

How the values were obtained:
[1] = tested on: human subjects/patients with pain following dental surgery; test: Dental surgery pain study: categorical pain intensity difference (PID, SPID); type: in vivo; conditions: LOCF; for Hourly Pain Intensity Difference (PID) score, Mean / Hourly Pain Intensity Difference (PID) score, Median: ITT subjects, PID as numerical variable
[2] = tested on: human subjects/patients with pain following dental surgery; test: Dental surgery pain study: time to onset of meaningful pain relief; type: in vivo; conditions: ITT
Description: (§1) For this randomized, double-blind, active-controlled and placebo-controlled, parallel-group study, human subjects were randomized into one of the following five treatment groups:
(§2) A positive control (T, Group 4) was used to determine the sensitivity of the clinical end points. A negative control (placebo, Group 5) was used to establish the frequency and magnitude of changes in clinical end points that may occur in the absence of an active treatment. A single oral dose of study medication was administered when the subject experienced moderate to severe pain following the surgical extraction of three or four third molars. At least one of the molars was required to be mandibular bony impacted.
A pain assessment was also performed post-treatment. Following dosing, pain intensity and pain relief was recorded at the following times: 30 minutes, 60 minutes and hourly thereafter up to Hour 8 after dosing. All efficacy assessments were recorded by the subject in a diary in response to questioning by the trained observer. […] Pain intensity was measured in response to the question, “How much pain do you have now?” with (1) subject response choices of none, mild, moderate and severe on a categorical scale, and (2) a mark on a 100-mm VAS. […]
Time to remedication (or rescue medication) was analyzed using the Kaplan-Meier estimate to compute the survival distribution function. […]

[3] = tested on: human subjects/patients with pain following dental surgery; test: Dental surgery pain study: remedication (rescue medication); type: in vivo; conditions: ITT
Description: as §1, §2
The subject was then given a rescue medication and discontinued from study. The subject was encouraged to wait at least until Hour 2 after administration of the study medication before using rescue medication. Subjects remedicating earlier than Hour 1 were not included in the analysis for efficacy. Subjects not remedicating during the eight hours of evaluation received a diary card and asked to record the time of remedication after they left the clinic.
Time to remedication (or rescue medication) was analyzed using the Kaplan-Meier estimate to compute the survival distribution function. The distribution was compared among groups using the Log Rank Test. A subject was considered censored at eight hours if remedication had not occurred. Pairwise comparisons were made using the LIFETEST methodology. Hochberg's procedure was used to control the family-wise type 1 error. Time to Onset of Meaningful Relief (determined by the stopwatch) was similarly analyzed. […] In all the above analyses baseline pain intensity could be used as a stratification factor. […] The sample size was estimated from historical data and from practical considerations rather than from calculation of expected measured differences.

α2-adrenoreceptors = conditions: cited from earlier work

## COc1cccc([C@@]2(O)CCCC[C@@H]2CN(C)C)c1.Cl (racemic) [tramadol, (1RS,2RS)-2[(dimethylamino)-methyl]-1-(3-methoxyphenyl)-cyclohexanol HCL]
[1]; Hour 0.5
  Hourly Pain Intensity Difference (PID) score, Mean: −0.22
  Hourly Pain Intensity Difference (PID) score, Median: 0
[1]; Hour 1
  Hourly Pain Intensity Difference (PID) score, Mean: −0.30
  Hourly Pain Intensity Difference (PID) score, Median: 0
[1]; Hour 2
  Hourly Pain Intensity Difference (PID) score, Mean: −0.06
  Hourly Pain Intensity Difference (PID) score, Median: 0
[1]; Hour 3
  Hourly Pain Intensity Difference (PID) score, Mean: −0.06
  Hourly Pain Intensity Difference (PID) score, Median: 0
[1]; Hour 4
  Hourly Pain Intensity Difference (PID) score, Mean: 0.06
  Hourly Pain Intensity Difference (PID) score, Median: 0
[1]; Hour 5
  Hourly Pain Intensity Difference (PID) score, Mean: 0.00
  Hourly Pain Intensity Difference (PID) score, Median: 0
[1]; Hour 6
  Hourly Pain Intensity Difference (PID) score, Mean: 0.04
  Hourly Pain Intensity Difference (PID) score, Median: 0
[1]; Hour 7
  Hourly Pain Intensity Difference (PID) score, Mean: −0.02
  Hourly Pain Intensity Difference (PID) score, Median: 0
[1]; Hour 8
  Hourly Pain Intensity Difference (PID) score, Mean: 0.02
  Hourly Pain Intensity Difference (PID) score, Median: 0
[1]; ITT, single oral dose
  SPID up to 4 Hours, Mean: −0.58
  SPID up to 4 Hours, Median: 0
  SPID up to 6 Hours, Mean: −0.54
  SPID up to 6 Hours, Median: 0
  SPID up to 8 Hours, Mean: −0.54
  SPID up to 8 Hours, Median: 0
[2]; Kaplan-Meier
  Time to Onset of Meaningful Pain Relief, Median: 3.85 h
[2]; within 8 hours
  Number of Subjects with Meaningful Pain Relief: 17 subjects
[3]; Kaplan-Meier
  Time to Remedication up to 8 Hours, Median: 2.48 h
  Time to Remedication up to 24 Hours, Median: 2.48 h
[3]; first section of Table 9
  Percent of Subject who take Remedication up to 8 hours, No: 15 (30.0%) n (%)
  Percent of Subject who take Remedication up to 8 hours, Yes: 35 (70.0%) n (%)
[3]; second section of Table 9
  Percent of Subject who take Remedication up to 8 hours, No: 8 (16.0%) n (%)
  Percent of Subject who take Remedication up to 8 hours, Yes: 42 (84.0%) n (%)
[3]; up to 8 Hours
  Number of Subjects taken Rescue Medication: 35 subjects
[3]; up to 24 Hours
  Number of Subjects taken Rescue Medication: 42 subjects
α2-adrenoreceptors
  affinity for α2-adrenoreceptors: does not have affinity
